Measured values published in paper PMC8196714, “Design, Radiosynthesis and Preliminary Biological Evaluation in Mice of a Brain-Penetrant ^18F-Labelled σ2 Receptor Ligand” (International Journal of Molecular Sciences, 2021).

Legend:
σ2 receptor = target: T1, σ2 receptor (Rattus norvegicus, UniProt Q5U3Y7); experiment: In vitro autoradiography on rat brain cryosections (healthy and orthotopic F98 glioblastoma); format: binding; design: from tissue; host or cells: rat brain cryosections (SPRD healthy; Fisher F344 with orthotopic F98 glioblastoma); details: for specific binding sites: at 1.5 nM [18F]RM273; for Kd: rat brain cryosections, n = 2
T1 sequence (Q5U3Y7 1-176): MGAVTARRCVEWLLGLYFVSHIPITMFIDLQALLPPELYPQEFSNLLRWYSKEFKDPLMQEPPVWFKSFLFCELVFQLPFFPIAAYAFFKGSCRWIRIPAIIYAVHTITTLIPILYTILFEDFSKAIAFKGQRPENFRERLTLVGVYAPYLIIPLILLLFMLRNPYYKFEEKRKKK
From the text: (§1) Initially, we investigated the binding of [^18F]RM273 on rat brain slices by autoradiography to compare the distribution pattern with that of established σ2 receptor ligands and to examine the target specificity. The highest binding was found in the cortical areas and hippocampal structures. […] Accordingly, we proceeded to investigate, in a rat glioblastoma model, the potential suitability of [^18F]RM273 for molecular characterization of cancer. At first, homologous competition studies using membrane homogenates of the rat glioma cell line F98 were performed to determine the σ2 receptor binding parameters of [^18F]RM273 cells (Figure 3).
We subsequently investigated the binding parameters of [^18F]RM273 by in vitro autoradiography using cryosections of rat brains obtained three weeks after stereotactic implantation of F98 rat glioblastoma cells into the left striatum. Initially, we performed a homologous displacement study to directly compare the binding sites of the new radioligand in a healthy brain and a brain tumor. The inhibition curves presented in Figure 3 indicate binding of [^18F]RM273 to single binding sites in both brain regions. […] Further supporting the assumption of a tumor-specific overexpression of σ2 receptors, a remarkably high density of binding sites of [^18F]RM273 in the F98 tumor tissue was observed (Figure 4). Compared to the healthy tissue (contralateral side), about three times more specific binding sites of [^18F]RM273 were estimated for the tumor region (32 × 10^−9 mol/L vs. 94 × 10^−9 mol/L at 1.5 nM [^18F]RM273).
In vitro autoradiography was performed using cryosections of brains of a healthy rat (SPRD, female, 250 g; Medizinisch-Experimentelles Zentrum, Universität Leipzig, Leipzig, Germany) and brains obtained from rats (Fisher F344/HanZtmRj, male, ≈260 g; Janvier Labs, Le Genest-Saint-Isle, France) 23 days after stereotactic implantation of 5 × 10^4 F98 cells in the […] striatum (n = 2).
Immediately after isolation, the brains were frozen by immersion in isopentane at −25 °C. Cryosections of 12 μm (Microm HM560 cryostat, Thermo Scientific, Schwerte, Germany) were mounted on microscopic glass slides, dried at room temperature, and stored at −25 °C. For the experiment, the slices were dried at room temperature under a stream of cold air before pre-incubation in PBS, pH 7.4, at room temperature for 15 min. […] Co-incubation with serial dilutions of RM273 (10^−10–10^−6 M) was performed to determine an inhibition curve. After 60 min, the incubation at room temperature was terminated by decanting and washing the slides by two consecutive incubations in ice-cold washing buffer (50 mM TRIS-HCl, pH 7.4 at 4 °C) for two min each, followed by dipping in ice-cold demineralized water for 5 sec and drying under a stream of cold air. In parallel, for subsequent quantification of the data obtained from the homologous competition experiment, defined volumes, and thus defined activities of the radioligand solution, were pipetted onto a microscopic glass slide (0.5–3 μL = 0.0355–0.213 kBq) and dried. Afterwards the tissue samples along with the standards were exposed to an ^18F-sensitive phosphor screen (ABC) for two hours. Image acquisition was performed using a phosphorimager (HD-CR 35; DÜRR NDT GmbH & Co. KG, Bietigheim-Bissingen, Germany). Analysis of the digitized images was performed by image analysis software (AIDA; Elysia-raytest GmbH, Straubenhardt, Germany).
Irregular regions of interest (ROI) were drawn on the standard spots and the different brain regions, which were confirmed by Nissl staining of the identical brain sections. Optical density measured in each ROI was expressed as quantum levels per unit area (QL/pixel) with a pixel size of 12.5 μm^2. From the calibration curve obtained from the standards by plotting QL vs. activity, the QL values of the ROIs were converted to activity values followed by conversion to chemical concentration of RM273 based on the molar activity of [^18F]RM273. […]

[1] = target: T2, σ2 receptors expressed in F98 cells (Rattus norvegicus, UniProt Q5U3Y7); experiment: Homologous competition with membrane homogenates of F98 cells; format: binding
T2 construct: σ2 receptors expressed in F98 cells; endogenous in cells; host or cells: F98 rat glioma cells
T2 sequence (Q5U3Y7 1-176): T1 sequence (Q5U3Y7 1-176)
From the text: as §1
Binding affinity experiments to assess the Ki values of test compounds towards rat σ2 receptors, human σ1 receptors, and rat VAChT were performed according to protocols previously published by our group. The same protocol was used to determine the KD and Bmax values of RM273 towards σ2 receptors expressed in F98 cells by homologous competition analyzing the displacement of [^18F]RM273 by RM273.
Figure 3 Determination of KD and Bmax values of [^18F]RM273. Homologous competition studies were performed by incubation of [^18F]RM273 at 5–7 different molar activities either with membrane homogenates of F98 cells (open squares) or cryosections of rat brain (n = 2) obtained about three weeks after stereotactic implantation of F98 cells (tumor region = filled circles; contralateral region = open circles). […] For the F98 cell homogenate, the maximum number of binding sites Bmax was calculated by division of the specific binding by the fractional occupancy fp (Bmax = 36,000 fmol/mg protein).

[2] = Lipophilicity (logD7.4), shake-flask method; format: physicochemical; details: n-octanol/PBS pH 7.4, shake-flask, n = 3
Protocol: The in vitro stability of [^18F]RM273 was investigated in saline, phosphate-buffered saline (PBS), and TRIS-HCl buffer (50 mM, pH 7.4) at 37 °C for 2 h, and the radioligand remained intact (90%, 94%, and 100%, respectively; saline for 1 h: 95%). The logD7.4 of [^18F]RM273 was experimentally determined by the shake-flask method as 1.78 ± 0.22 (n = 3), which is well within the range of 1–3.5 recommended for brain targeting compounds [43].
LogD7.4 of [^18F]RM273 was experimentally determined in n-octanol/PBS; 0.01 M, pH 7.4) at room temperature by the shake-flask method. The measurement was performed twice in triplicate.

specific binding sites (σ2 receptor; F98 tumor region): 9.4e-08 mol/L
Kd (σ2 receptor; contralateral striatum / contralateral brain): 2.93 nM
specific binding sites (σ2 receptor; healthy tissue (contralateral side)): 3.2e-08 mol/L
Kd (σ2 receptor; orthotopically grown F98 tumor region): 4.82 nM
Bmax equivalent ([1]; F98 cell homogenate, converted from fmol/mg protein): about 3600 fmol/mg tissue
Bmax ([1]; F98 cell membrane homogenate): 36,000 fmol/mg protein
Kd ([1]; F98 cell membrane homogenate, homologous competition): 12 nM
logD [2]: 1.78 ± 0.22
Structure (SMILES): COc1cc2c(cc1OC)CN(CCCCn1ccc3ccc([18F])nc31)CC2 [[^18F]RM273]
